Consider four molecules from US7214715B2, “Compounds to treat Alzheimer's disease” (Pharmacia & Upjohn, priority 2000, dated 2007).

As for `CCCN(CCC)C(=O)c1cc(C(=O)N[C@@H](Cc2ccccc2)[C@H](O)CNCc2cccc(OC)c2)cc(-c2ccc(OC)cc2)c1.Cl`, the melting point is 205 to 209 °C. As for `CCCN(CCC)C(=O)c1cc(C(=O)N[C@@H](Cc2cc(F)cc(F)c2)[C@H](O)CNCc2cccc(OC)c2)cc(-c2ccccc2)c1.Cl`, the figure is 230 to 233 °C; as for `CCCN(CCC)C(=O)c1cc(C(=O)N[C@@H](Cc2ccccc2)[C@H](O)CNCc2cccc(OC)c2)cc(-c2ccccc2)c1.Cl`, 214 to 219 °C. Turning to `CCCN(CCC)C(=O)c1cc(C(=O)N[C@@H](Cc2ccccc2)[C@H](O)CNCc2cccc(OC)c2)cc(-c2ccsc2)c1.Cl`, the melting point lay in the range of 199 to 201 °C.
